{"source": "patent US10604785B2", "about": "(priority 2016, dated 2020)", "tested_on": "Rab33b", "format": "cell-based", "note": "Residues, ends and D or L forms follow the SMILES beside them. *: point of attachment. Cbz = O=C(OCc1ccccc1)*", "data": [{"smiles": "CC(C)C[C@@H](C=O)NC(=O)[C@H](CC(C)C)NC(=O)[C@H](CC(C)C)NC(=O)OCc1ccccc1", "note": "[MG132] (Cbz-Leu-Leu-Leu-aldehyde)", "values": [{"measurement": "effect on level of modified Rab33b", "result": "does not affect the level of modified Rab33b"}]}]}
